Patent US10556860B2, “hTERT modulators and methods of use” (Arizona Board of Regents on Behalf of the University of …, priority 2015, dated 2020)

Assays:
[1] = target: G146A 5-12 G-quadruplex of hTERT core promoter; test: FRET assay for Kd, G146A probe; type: binding, human
Protocol: FRET assay for compound screening and determination of Kd value. FRET probes of WT, G124/125A, and G146A of the 5-12 G-quadruplex were synthesized and labeled with FAM (Ex. 490 nm/Em. 520 nm) and TAMRA (Ex. 560 nm/Em. 580 nm) at each end by MGW Operon Inc. The WT probe (50 nM) was annealed in a buffer containing 10 mM Tris-HCl (pH 7.5) and 5 mM KCl by heating at 95° C. for 5 min and slowly cooling to room temperature. Compounds (50 μM) and probe were incubated for 1 h at room temperature. The same volume of DMSO served as a control. For Kd value determination, the WT, G124/125A, and G146A probes were annealed, and then several concentrations of compound were treated for 1 h at room temperature. Dose-dependent fluorescence intensity at 520 nm was measured by a microplate reader (BioTek Synergy HT). The data were corrected with the blank signal of buffer and compound. The relative fluorescence intensity compared to DMSO was used for binding curve fitting to determine Kd value using GraphPad Prism software.
The hTERT core promoter region includes 12 runs of consecutive guanines that form two G-quadruplexes in tandem on the G-rich strand. […] When the G-quadruplex is folded, two fluorophores are in proximity, which leads to a decrease in FAM fluorescence. […]

[2] = system: G124/125A 5-12 G-quadruplex; test: CD kinetics, temperature-jump, G124/125A; type: biochemical, human; conditions: 2 equiv
Protocol: FIGS. 10A and 10B are a set of graphs showing (A) comparison of kinetics of initial folding rate of the WT 5-12 G-quadruplex with GTC365 and BRACO-19 by the temperature-jump method. (B) Enhanced initial folding rate of the 5-12 G-quadruplexes carrying different hTERT mutants by GTC365. The time-course CD signal of preheated oligo with compound or DMSO in a buffer containing 10 mM Tris-HCl (pH 7.5) and 5 mM KCl was monitored at 262 nm and 25° C.
For the kinetics analysis using the temperature-jump method, theoligo in a buffer containing 10 mM Tris-HCl (pH 7.5) was heated forl min at 95° C., and then a mixture of KCl and compound was addedand incubated for 1 min. Meanwhile, the CD cuvette was also heatedat 95° C. As soon as the sample in the CD cuvette at the hightemperature was placed in the CD chamber, a time-dependent CDsignal at 262 nm was recorded immediately. The initial folding ratewas determined by one-phase association curve fitting (eq 1) of thekinetics curve using GraphPad Prism 5: Y=Y0+(Plateau−Y0)*(1−e^−kx) (1) where Y is the CD signal at any time point x, Y0 is the Y value whentime (x) is zero, plateau is the Y value at infinite time, and k is the rateconstant.
To evaluate the comparative effects of GTC365 relative to BRACO-19 on the cooperative folding process, we carried out two different experiments. […]

caspase-3 = test: Caspase assay in MCF7 cells; type: cell-based, human; conditions: 0.5-1 μM, 48 h, relative to DMSO
Protocol: Caspase assay. MCF7 cells in a 6-well plate were treated with GTC365 for 48 h. The caspase-3 assay was conducted using an Apoalert Caspase 3 Fluorescent Assay Kit (Clontech) with DEVD-AFC as a substrate of capase-3 following the manufacturer's instruction. Fluorescence intensity of released AFC was measured using a BioTek Synergy HT with excitation at 400 nm and emission at 505 nm. The relative caspase-3 activity compared to the DMSO was obtained.
Indeed at 0.5-1 μM, the BAX/BCL2 ratio was increased by over 2-fold and the capase-3 activity was increased by 47% (FIGS. 11 and 12).

## N=C(N)NCCCS(=O)(=O)Nc1ccc(Nc2c3ccccc3nc3cc([N+](=O)[O-])ccc23)cc1 [GTC365]
[1]
  Kd value higher than WT and G124/125A: 1.5 fold
[2]
  increase of initial folding rate: 0.042 s⁻¹
caspase-3
  increase of caspase-3 activity: 47%
